Experimental data taken from patent US8697685B2, “Chemical compounds” (GlaxoSmithKline LLC, priority 2008, dated 2014).

How the values were obtained:
[1] = biological target: T1, full length PDK1 (Homo sapiens, UniProt O15530); experiment: Scintillation Proximity (LEADseeker) kinase assay of purified hPDK1 using biotinylated-PDKtide peptide; type: biochemical; conditions: in at least one experimental run; PDKtide substrate; read-out: IC50 against full length PDK1 using the PDKtide substrate assay
T1 construct: Full-length human 3-Phosphoinositide Dependent protein Kinase-1; made in house; host or cells: baculovirus / Sf9 insect cells
T1 sequence (O15530 1-556): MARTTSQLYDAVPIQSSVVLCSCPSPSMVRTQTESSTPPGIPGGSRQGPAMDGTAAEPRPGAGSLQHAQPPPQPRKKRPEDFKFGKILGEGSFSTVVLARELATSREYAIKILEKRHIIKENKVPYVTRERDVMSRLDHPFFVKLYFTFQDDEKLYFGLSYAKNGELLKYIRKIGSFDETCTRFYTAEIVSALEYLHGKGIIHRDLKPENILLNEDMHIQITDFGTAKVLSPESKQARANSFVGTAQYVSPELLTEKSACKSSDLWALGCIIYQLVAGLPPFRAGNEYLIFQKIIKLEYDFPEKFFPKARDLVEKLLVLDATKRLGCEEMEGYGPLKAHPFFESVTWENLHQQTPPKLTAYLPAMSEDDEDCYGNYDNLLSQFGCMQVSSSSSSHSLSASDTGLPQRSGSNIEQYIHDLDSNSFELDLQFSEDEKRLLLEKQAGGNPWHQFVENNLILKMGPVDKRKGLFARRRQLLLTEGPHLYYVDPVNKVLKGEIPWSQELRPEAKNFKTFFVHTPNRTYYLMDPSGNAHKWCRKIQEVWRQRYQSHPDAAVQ
Experimental: (§1) Full-length human 3-Phosphoinositide Dependent protein Kinase-1 (hPDK1; National Center for Biotechnology Information (NCBI) accession number AAH39158.1 with a MetGlyHis6 N-terminal addition) is purified from baculovirus expression in Sf9 cells. Purity of approximately 80% is achieved by the use of chelation chromatography (Ni-NTA Superflow) and desalting columns. Samples, in 25 mM HEPES, 150 mM NaCl, 2.5 mM DTT, 0.05% Triton, 30% glycerol, pH 8.0, are stored at −80° C. until use.
The 39 amino acid biotinylated-PDKtide peptide Seq. ID No. 1: (Biotin-Ahx-[…]) was custom synthesized by 21st Century Biochemicals. The peptide was >95% pure and dissolved in HPLC grade water to give a final concentration of 1.1 mM. The concentration was confirmed by quantitative amino acid analysis.
(§2) Scintillation Proximity (LEADseeker) Kinase Assay of Purified hPDK1 using Biotinylated-PDKtide Peptide:
(§3) Assays are performed in 384-well microtiter plates (Greiner, Catalog No. 784075). The reaction volume (10 μl) contains, in final concentrations, 25 mM MOPS (pH 7.5), 10 mM MgCl2, 50 mM KCl, 0.1 mg/ml BSA, 1 μM ATP, 3 uCi/ml ^33PγATP, 5 mM DTT, 0.5 mM CHAPS, 1 μM biotinylated-PDKtide peptide, and 0.5 nM hPDK1.
Compounds, titrated in DMSO, are evaluated at eleven concentrations ranging from 25 μM to 0.4 pM. […] No effect on activity relative to controls without DMSO is observed for hPDK1 at these DMSO amounts. hPDK1 is pre-incubated, 30 minutes at room temperature, with compounds before initiating phosphorylation of biotinylated-PDKtide peptide by addition of substrate to hPDK1/compound. Reactions are stopped after 4 hours at room temperature by the addition of 50 mM EDTA, 5 mg/ml LEADseeker beads (GE Healthcare) in PBS (10 ul). Beads are allowed to settle overnight, and samples are imaged on Viewlux (PerkinElmer).
(§4) The data for compound concentration responses were plotted as % Inhibition, calculated with the data reduction formula 100*(1−[(U1−C2)/(C1−C2)]), versus concentration of compound, where
(§5) Data were fitted to the curve described by:
The results for each compound were recorded as pIC50 calculated as follows: […]

[2] = biological target: T1, full length PDK1; experiment: PDK1 enzyme assays (substrate phosphorylation: LEADseeker scintillation proximity, TR-FRET, PDKtide); type: biochemical; conditions: in at least one experimental run, read-out: IC50 against full length PDK1
Experimental: Substrate phosphorylation assays are carried out as follows:
Biotinylated-hAKT1: Human AKT1 (containing amino acid residues 136-480, as annotated by National Center for Biotechnology Information (NCBI) accession number AAL55732.1, with a MetLysLysHis6 N-terminal addition) is purified to >90% from lysate of baculovirus expression by Nickel Chelating ProBond resin (InVitrogen), Q-Sepharose Fast Flow, and Superdex 200 size exclusion chromatography. Biotinylation is achieved using EZ-Link Sulfo-NHS-LC Biotin (Pierce). Samples, in 25 mM HEPES, pH 7.5, 200 mM NaCl, 2 mM DTT, and 30% glycerol are stored at −80C until use.
as §1
The 39 amino acid biotinylated-PDKtide peptide Seq. ID No. 1: (Biotin-Ahx-[…]) was custom synthesized by 21st Century Biochemicals. […] The concentration was confirmed by quantitative amino acid analysis.
Scintillation Proximity (LEADseeker) Kinase Assay of Purified hPDK1:
as §3, with “DTT, 1” for “DTT, 0.5”, “mM CHAPS or 0.05% Tween20, 0.35” for “mM CHAPS, 1”, “μM AKT1 biotinylated protein,” for “μM biotinylated-PDKtide peptide,”, “and 10” for “and 0.5”
Compounds, titrated in DMSO, are evaluated at eleven concentrations ranging from 50 μM to 2 μM. […] Reactions are stopped after 3 hours at room temperature by the addition of 50 mM EDTA, 5 mg/ml LEADseeker beads (GE Healthcare) in PBS (10 ul). Beads are allowed to settle overnight, and samples are imaged on Viewlux (PerkinElmer).
as §4, §5
TR-FRET Kinase Assay of Purified hPDK1:
Assays are performed in 384-well microtiter plates (Greiner, Catalog No. 784076).
As previously described for the Scintillation Proximity protocol, hPDK1 is pre-incubated (30 minutes at room temperature) with compounds before initiating phosphorylation of AKT1 by addition of substrate to the hPDK1 and compound mix. Reactions are stopped after 4-6 hours at room temperature by the addition to final concentrations of 0.02 M EDTA, 0.0875 μM Streptavidin APC (PerkinElmer), 0.03 μM AKT1 (phospho T308) antibody (Abcam Inc.), 0.00375 μM Lance Eu-labeled anti rabbit IgG Antibody (PerkinElmer). Antibody binding reaches equilibrium in 30 minutes before signal is read on an EnVision™ 2103 Multilabel Reader (PerkinElmer). APC Signals are normalized to Europium signal. Data processing is the same as described for the Scintillation Proximity assay with the exception of the generation of the “C2” control by addition of buffer without hPDK1 to control wells at t=0 instead of EDTA.
as §2, §3
Compounds, titrated in DMSO, are evaluated at eleven concentrations ranging from 25 μM to 0.4 pM. […] Reactions are stopped after 4 hours at room temperature by the addition of 50 mM EDTA, 5 mg/ml LEADseeker beads (GE Healthcare) in PBS (10 ul).

[3] = tested on: AKT phosphorylation at T308 in PC-3 cells; experiment: Phospho-AKT (T308) ELISA in PC3 cells; type: cell-based; conditions: Homo sapiens, 6 hours compound treatment, in at least one experimental run, read-out: IC50 for inhibition of AKT phosphorylation at T308 in PC-3 cells
Experimental: Phospho-AKT (S473, T308, Total AKT) and phospho-RSK ELISA
PC3 cells (ATCC, Manassas, Va.) were plated in 96-well flat bottom plates (Corning, Lowell, Mass.) at a density of 15,000 cells/well in RPMI 1640 medium supplemented with 10% FBS. Cells were incubated at 37° C., 5% CO2 for 18-20 h. Compounds (dissolved in 100% DMSO) were diluted in an 11-point 3-fold dilution in DMSO. Compound dilution stocks were further diluted in RPMI 1640 with 10% FBS and added to each cell well. DMSO without compound was used in control wells. Final concentration of DMSO in each well was 0.15%. After 6 hours at 37° C. cells were washed with cold PBS (without calcium or magnesium) and lysed in lysis buffer (Meso Scale Discovery, Gaithersburg, Md.) supplemented with 1 protease inhibitor tablet/10 ml (Roche, Indianapolis, Ind.), 10 mM NaF, and 200 μl/10 ml Sigma phosphatase inhibitor 1 & 2 (Sigma Aldrich, St Louis, Mo.) for 30 min at 4° C. All washes were performed on a Bio Tek ELx405 plate washer (Bio Tek Instruments, Winooski, Vt.).
ELISA plates (Meso Scale Discovery; AKT Duplex, cat. N41100B-1; phospho AKT, cat. N411CAB-1; RSK, cat. N41ZB-1) were prepared by the addition of blocking buffer (3% Blocker A diluted in wash buffer (Meso Scale Discovery) for AKT duplex assay and phospho AKT assays; 5% Blocker A/1% Blocker B in Tris-buffered saline for RSK) for 1 hour and washed with wash buffer. Lysates were transferred to assay wells and incubated overnight at 4° C. Following washing with wash buffer, detection buffer (1% Blocker A in wash buffer for AKT duplex and phospho AKT or 1% Blocker A in TBS for RSK) with appropriate antibodies was added. Detection of AKT duplex and phospho AKT was carried out using a sulfo-tagged detection antibodies (Meso Scale Discovery). Detection of phospho-RSK was carried out sequentially with anti phospho-RSK1 (S221)/RSK2 (S227) (R&D systems, Minneapolis, Minn., cat. AF892) and goat anti-rabbit sulfo-tag antibody (cat R32AB-1; Meso Scale Discovery). Plates were incubated for 1 hour at room temperature and washed with wash buffer. Plates were read on a SECTOR™ Imager 6000 (Meso Scale Discovery) using Workbench software (Meso Scale Discovery) following addition of read buffer (Meso Scale Discovery) to each well. For analysis, phospho-AKT (S473) signals were normalized to total AKT, while phospho-AKT (T308) and phospho-RSK signals were analyzed without normalization. All values were expressed as percent of the DMSO-treated controls. IC50s were determined from inhibition curves using XLfit4 software (IDBS, Guildford, UK).

| Compound | IC50 [1] | IC50 [2] | IC50 [3] |
| --- | --- | --- | --- |
| Nc1nc(NC2(Cc3ccccc3)CC2)cc(-c2ccc3c(N)n[nH]c3c2)n1 [Example 61, 6-(3-Amino-1H-indazol-6-yl)-N^4-[1-(phenylmethyl)cyclopropyl]-2,4-pyrimidinediamine] | 10 nM | < 100 nM |  |
| CC[C@@H]1COCCN1c1cc(-c2ccc3c(N)n[nH]c3c2)nc(NC)n1 [Example 177, 6-[6-[(3R)-3-Ethyl-4-morpholinyl]-2-(methylamino)-4-pyrimidinyl]-1H-indazol-3-amine] | 25 nM | < 150 nM |  |
| COc1cc(-c2cc(N3C[C@H](C)C[C@@H](NC(=O)OC(C)(C)C)C3)nc(N)n2)cc2[nH]nc(N)c12 [Example 214, 1,1-Dimethylethyl((3R,5R)-1-[2-amino-6-[3-amino-4-(methyloxy)-1H-indazol-6-yl]-4-pyrimidinyl]-5-methyl-3-piperidinyl)carbamate] | 2 nM | < 50 nM |  |
| C[C@@H]1C[C@@H](N(C)C(=O)OC(C)(C)C)CN(c2cc(-c3ccc4c(N)n[nH]c4c3)nc(N)n2)C1 [Example 221, 1,1-Dimethylethyl{(3R,5R)-1-[2-amino-6-(3-amino-1H-indazol-6-yl)-4-pyrimidinyl]-5-methyl-3-piperidinyl}methylcarbamate] |  | < 50 nM | < 1000 nM |

More lines, now with the values ahead:

| IC50 [1] | IC50 [2] | IC50 [3] | Compound |
| --- | --- | --- | --- |
|  | < 20 nM | < 1000 nM | CNc1nc(-c2ccc3c(C)n[nH]c3c2)cc(N2C[C@@H](C(=O)NC3CCCCC3)CC[C@H]2C)n1 [Example 83, (3S,6R)—N-Cyclohexyl-6-methyl-1-[2-(methylamino)-6-(3-methyl-1H-indazol-6-yl)-4-pyrimidinyl]-3-piperidinecarboxamide] |
|  | < 20 nM | < 1000 nM | CNc1nc(-c2ccc3c(N)n[nH]c3c2)cc(N2C[C@@H](C(=O)NCc3ccccc3)OC[C@H]2C)n1 [Example 161, (2S,5R)-4-[6-(3-Amino-1H-indazol-6-yl)-2-(methylamino)-4-pyrimidinyl]-5-methyl-N-(phenylmethyl)-2-morpholinecarboxamide] |
| 7.9 nM | < 20 nM |  | CC[C@@H]1CO[C@H](C(=O)NC2CCCCC2)CN1c1cc(-c2ccc3c(N)n[nH]c3c2)nc(N)n1 [Example 173, (2S,5R)-4-[2-Amino-6-(3-amino-1H-indazol-6-yl)-4-pyrimidinyl]-N-cyclohexyl-5-ethyl-2-morpholinecarboxamide] |
